According to patent publication US20260234144A1 (TAY THERAPEUTICS LIMITED, priority 2023, published 2026):

Test system: R223X stop codon in the mutated luciferase gene, ADXC8 luciferase reporter cell line
Assay: cells
Format: cell-based
Details: ADXC8 cells, 24 hours; for Emax / EC (100% of 200 uM G418 response): 24 h; for Emax: read-out: Fold Over Control, maximum fold response relative to 200 μM G418; for EC (100% of 200 uM G418 response): read-out: pC100%, negative logarithm of the concentration giving the same response as 200 μM G418; for pC100%: negative logarithm of the concentration giving the same response as 200 μM G418

SMILES	Emax	EC (100% of 200 uM G418 response)	pC100%
Cc1cc(C)c2c(N)nc(NC3CCN(Cc4ccccc4C)CC3)nc2n1 [Example 550]	100 to 3000%	1 to 10 µM	
Cc1cc(C)c2c(N)nc(NC3CCN(Cc4c(F)cc(C#N)cc4F)CC3)nc2n1 [Example 551]	100 to 3000%	10 to 100 µM	
CNc1nc(NC2CCNCC2)nc2nc(C)c3c(c12)CCC3 [Example 552]		0.1 to 1 µM	
Cc1c2c(nc3nc(N[C@H]4CNC[C@@H]4O)nc(N(C)C)c13)CCC2 [Example 553]	100 to 3000%	10 to 100 µM	
Cc1nc2nc(NC3CCN(Cc4ccc(C#N)cc4)CC3)nc(N)c2c2c1CCC2 [Example 554]	100 to 3000%	0.1 to 1 µM	
Cc1c2c(nc3nc(NC4CCN(Cc5ccc(C#N)cc5)CC4)nc(NCCO)c13)CCC2 [Example 555]	100 to 3000%	0.1 to 1 µM	
Cc1nc2nc(NC3CCNCC3)nc(N)c2c2c1CCC2 [Example 556]	100 to 3000%	0.1 to 1 µM	
Cc1cc(C)c2c(N)nc(N[C@@H]3CCN(Cc4ccc(C#N)cc4)C[C@H]3O)nc2n1 [Example 558]	100 to 3000%	1 to 10 µM	
Cc1cc(C)c2c(N)nc(NC3CCN(Cc4ccncc4Br)CC3)nc2n1 [Example 559]	100 to 3000%	1 to 10 µM	
CC(=O)Nc1cnccc1CN1CCC(Nc2nc(N)c3c(C)cc(C)nc3n2)CC1 [Example 560]	100 to 3000%	1 to 10 µM	
Cc1cc(C)c2c(N)nc(NC3CCN(Cc4ccc(C#N)cc4Br)CC3)nc2n1 [Example 561]	100 to 3000%	1 to 10 µM	
Cc1cc(C)c2c(N)nc(N[C@@H]3CCN(Cc4ccc(C#N)cc4)C[C@@H]3O)nc2n1 [Example 562]	100 to 3000%	1 to 10 µM	
[2H]C([2H])([2H])Nc1nc(N[C@H]2CNC[C@@H]2O)nc2nc3c(c(C)c12)CCC3 [Example 563]		0.1 to 1 µM	
Cc1cc(C)c2c(N)nc(NC3CCN(Cc4ccncc4O)CC3)nc2n1 [Example 564]	100 to 3000%	1 to 10 µM	
Cc1cc(C)c2c(N)nc(NC3CCN(Cc4cccc(F)c4O)CC3)nc2n1 [Example 566]	100 to 3000%	0.1 to 1 µM	
Cc1cc(C)c2c(N)nc(NC3CCN(Cc4ccc(C#N)cc4O)CC3)nc2n1 [Example 567]	100 to 3000%	0.1 to 1 µM	
Cc1cc(C)c2c(N)nc(NC3CCN(Cc4cnn(C)c4)CC3)nc2n1 [Example 568]	100 to 3000%	1 to 10 µM	
Cc1cc(C)c2c(N)nc(NC3CCN(Cc4cc(F)cc(F)c4O)CC3)nc2n1 [Example 569]	100 to 3000%	1 to 10 µM	
Cc1cc(C)c2c(N)nc(NC3CCN(Cc4ccc(C#N)c(F)c4)CC3)nc2n1 [Example 570]	100 to 3000%	0.1 to 1 µM	
Cc1cc(C)c2c(N)nc(NC3CCN(Cc4ccc(C#N)cc4F)CC3)nc2n1 [Example 571]	100 to 3000%	1 to 10 µM	
Cc1cc(C)c2c(N)nc(NC3CCN(Cc4cn[nH]c4)CC3)nc2n1 [Example 572]	100 to 3000%	1 to 10 µM	
Cc1cc(C)c2c(N)nc(N[C@@H]3CCNC[C@@H]3O)nc2n1 [Example 573]		1 to 10 µM	
Cc1cc(C)c2c(N)nc(N[C@H]3CCN(Cc4ccc(C#N)cc4)C[C@@H]3F)nc2n1 [Example 574]	100 to 3000%	10 to 100 µM	
Cc1cc(C)c2c(N)nc(N[C@@H]3CCN(Cc4ccc(C#N)cc4)C[C@@H]3F)nc2n1 [Example 575]	100 to 3000%	10 to 100 µM	
CNc1nc(NC2CCN(Cc3ccccc3O)CC2)nc2nc(C)cc(C)c12 [Example 579]	100 to 3000%	0.1 to 1 µM	
CNc1nc(NC2CCN(Cc3ccc(C#N)cc3)CC2)nc2nc(C)cc(C)c12 [Example 580]	100 to 3000%	1 to 10 µM	

SMILES	Emax	EC (100% of 200 uM G418 response)	pC100%
Cc1c2c(nc3nc(N[C@@H]4CCCNC4)nc(N)c13)CCC2 [Example 581]	100 to 3000%	0.01 to 0.1 µM	
Cc1c2c(nc3nc(N[C@H]4CNC[C@@H]4O)nc(N)c13)CCC2 [Example 582]	100 to 3000%	0.01 to 0.1 µM	
[2H]C([2H])([2H])N1CCC(Nc2nc(N)c3c(C)cc(C)nc3n2)CC1 [Example 584]		1 to 10 µM	
Cc1cc(C)c2c(N)nc(N[C@@H]3CCNC[C@H]3F)nc2n1 [Example 585]	100 to 3000%	1 to 10 µM	
Cc1cc(C)c2c(N)nc(N[C@@H]3CCNC[C@@H]3F)nc2n1 [Example 586]		1 to 10 µM	
Cc1cc(C)c2c(N)nc(N[C@H]3CCNC[C@H]3F)nc2n1 [Example 587]	100 to 3000%	1 to 10 µM	
CNc1nc(NC2CCNCC2)nc2nc(C)cc(C)c12 [Example 588]		0.1 to 1 µM	
[2H]C([2H])([2H])Nc1nc(NC2CCNCC2)nc2nc(C)cc(C)c12 [Example 589]		1 to 10 µM	
Cc1cc(C)c2c(N)nc(N[C@H]3CCNC[C@@H]3F)nc2n1 [Example 590]		1 to 10 µM	
CNc1nc(N[C@H]2CN(C)CC[C@H]2OC)nc2nc(C)cc(C)c12 [Example 591]	100 to 3000%	0.1 to 1 µM	
CNc1nc(NC2CC3CCC2N3C)nc2nc(C)cc(C)c12 (stereo not shown) [Example 592]	100 to 3000%	1 to 10 µM	
CNc1nc(NC2CCCN3CCCC23)nc2nc(C)cc(C)c12 (stereo not shown) [Example 597]			++ (pC100% > 5.0 ≤ 6.0)
CNc1nc(NC2CCCN3CCCC23)nc2nc(C)cc(C)c12 (stereo not shown) [Example 598]	100 to 3000%		+ (pC100% > 4.0 ≤ 5.0)
CNc1nc(NCC23CCCN2CCC3)nc2nc(C)cc(C)c12 [Example 600]	0 to 100%	> 31.6 µM	
Cc1cc(C2CC2)nc2nc(NC3CCN(C)CC3)nc(N)c12 [Example 601]		1 to 10 µM	
Cc1cc(C(C)C)nc2nc(NC3CCN(C)CC3)nc(N)c12 [Example 602]		1 to 10 µM	
CNc1nc(N[C@@H]2C[C@H](O)CN(C)C2)nc2nc(C)cc(C)c12 [Example 603]	100 to 3000%	1 to 10 µM	
CNc1nc(N[C@@H]2C[C@@H](O)CN(C)C2)nc2nc(C)cc(C)c12 [Example 604]	100 to 3000%	1 to 10 µM	
CNc1nc(NC2CCN(Cc3ccccc3)CC2)nc2nc3c(c(C)c12)CCC3 [Example 605]	100 to 3000%	0.1 to 1 µM	
CNc1nc(N[C@H]2CNCC[C@H]2O)nc2nc(C)cc(C)c12 [Example 606]		1 to 10 µM	
CNc1nc(N[C@H]2CN(C)CC[C@H]2O)nc2nc(C)cc(C)c12 [Example 607]		1 to 10 µM	
CNc1nc(N[C@H]2CNCC[C@@H]2O)nc2nc(C)cc(C)c12 [Example 608]		1 to 10 µM	
CNc1nc(N[C@H]2CN(C)CC[C@@H]2O)nc2nc(C)cc(C)c12 [Example 609]		1 to 10 µM	
CNc1nc(N[C@H]2CNC[C@@H](O)C2)nc2nc(C)cc(C)c12 [Example 610]		1 to 10 µM	
CNc1nc(N[C@H]2CNC[C@H](O)C2)nc2nc(C)cc(C)c12 [Example 611]		0.1 to 1 µM	
